Data from patent US12295937B2, “Psychoactive medicines and their use for treating psychiatric and neurological conditions and disorders” (Transcend Therapeutics, Inc., priority 2021, dated 2025).
Like-named read-outs stand apart in the source and are kept apart here.

Tests used:
[1] = target: T1, 5HT2A receptor (Homo sapiens, UniProt P28223); assay: GPCRmax screen, agonist mode, 5HT2A; type: cell-based; conditions: 1 or 10 mM
T1 construct: host or cells: PathHunter cell lines

[2] = target: T2, 5HT2C receptor (Homo sapiens, UniProt P28335); assay: GPCRmax screen, agonist mode, 5HT2C; type: cell-based; conditions: 1 or 10 mM
T2 construct: host or cells: PathHunter cell lines
T2 sequence (P28335 33-458): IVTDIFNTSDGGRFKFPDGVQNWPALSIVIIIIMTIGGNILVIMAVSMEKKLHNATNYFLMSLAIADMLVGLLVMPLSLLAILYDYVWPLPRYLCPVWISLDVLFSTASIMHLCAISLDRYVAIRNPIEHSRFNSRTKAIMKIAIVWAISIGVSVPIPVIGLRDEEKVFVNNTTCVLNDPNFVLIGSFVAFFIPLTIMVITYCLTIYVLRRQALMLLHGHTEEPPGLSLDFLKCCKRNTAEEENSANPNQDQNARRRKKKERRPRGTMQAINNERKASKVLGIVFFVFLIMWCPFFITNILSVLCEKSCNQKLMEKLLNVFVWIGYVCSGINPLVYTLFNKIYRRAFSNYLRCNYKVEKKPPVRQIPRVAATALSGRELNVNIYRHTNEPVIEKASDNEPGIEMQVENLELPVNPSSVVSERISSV

[3] = target: T2, 5HT2C receptor; assay: GPCRmax screen, antagonist mode, 5HT2C; type: cell-based; conditions: 1 or 10 mM
[4] = target: T3, Human serotonin 5HT2B receptor (Homo sapiens, UniProt P41595); assay: Competitive radioligand binding to 5HT2B receptor membranes
T3 sequence (P41595 whole entry): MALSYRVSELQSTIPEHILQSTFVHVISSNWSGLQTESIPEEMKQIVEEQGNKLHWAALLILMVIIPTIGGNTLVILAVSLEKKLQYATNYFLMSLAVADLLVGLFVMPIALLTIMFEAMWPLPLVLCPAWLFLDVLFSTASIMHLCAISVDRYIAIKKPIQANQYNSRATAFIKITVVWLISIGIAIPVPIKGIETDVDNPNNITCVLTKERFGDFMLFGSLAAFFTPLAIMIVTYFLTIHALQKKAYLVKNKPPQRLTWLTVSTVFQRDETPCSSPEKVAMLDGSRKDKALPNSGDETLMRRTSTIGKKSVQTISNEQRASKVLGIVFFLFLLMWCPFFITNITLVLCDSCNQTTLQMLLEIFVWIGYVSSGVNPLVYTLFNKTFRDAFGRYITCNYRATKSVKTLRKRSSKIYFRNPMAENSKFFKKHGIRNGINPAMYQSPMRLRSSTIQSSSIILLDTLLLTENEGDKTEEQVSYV
Description: Human serotonin 5HT2B receptor membrane preparations were divided into aliquots. On the day of the assay, membranes were diluted at 1:200 in incubation buffer. […] To each well was added 150 μL membrane preparation, 50 μL test compound, non-specific compound, or buffer alone, as well as 50 μL radioligand. The plate was incubated at 35° C. for 90 minutes with gentle agitation. […] For each concentration of drug, non-specific binding was subtracted from total binding to give specific binding. […] Ki was subsequently calculated using the ChengPrusoff equation.

[5] = tested on: gene expression in amygdala, frontal cortex, hippocampus; assay: RNA-sequencing of rat brain areas after a single dose; type: in vivo
[6] = tested on: myelin basic protein (MBP); assay: Myelin basic protein immunohistochemistry in amygdala; type: in vivo, rat; conditions: 10 mg/kg IP, 24 h
Description: Immunohistochemistry: The in-life portion of the study was conducted at WuXi Apptec (Cranbury, NJ). Sectioning and staining of brains took place at Neuroscience Associates (NSA, Knoxville, TN). […] Brains were post-fixed in PFA before shipment to NSA for processing and staining. Hemisected brains were mounted, sectioned and stained using standard protocols with myelin-basic protein primary antibody (MBP SMI-99, 1:5000, Biolegend, San Diego, CA) and anti-mouse biotinylated secondary antibody (BA-2001, Vector Laboratories, Newark, CA). Slides were imaged using a Huron Digital Pathology TissueScope LE120 whole slide scanning system. 20× objective was used with a 0.4 μm/pixel resolution.

[7] = cited from earlier work
[8] = 7.5 mg/kg 30 minutes prior to extinction training (Young 2015); cited from earlier work
[9] = target: T3, Human serotonin 5HT2B receptor; conditions: read-out: Ki (reported); reported values; cited from earlier work
[10] = depending on the animal model and dosing conditions; cited from earlier work
[11] = 13 of 77 deaths, meta-analysis; cited from earlier work
[12] = target: T4, SERT (Rattus norvegicus, UniProt P31652); assay: [3H]5-HT release from rat brain synaptosomes; type: biochemical; design: from tissue; synaptosomes for uptake and release
T4 sequence (P31652 whole entry, the tested form may be a part): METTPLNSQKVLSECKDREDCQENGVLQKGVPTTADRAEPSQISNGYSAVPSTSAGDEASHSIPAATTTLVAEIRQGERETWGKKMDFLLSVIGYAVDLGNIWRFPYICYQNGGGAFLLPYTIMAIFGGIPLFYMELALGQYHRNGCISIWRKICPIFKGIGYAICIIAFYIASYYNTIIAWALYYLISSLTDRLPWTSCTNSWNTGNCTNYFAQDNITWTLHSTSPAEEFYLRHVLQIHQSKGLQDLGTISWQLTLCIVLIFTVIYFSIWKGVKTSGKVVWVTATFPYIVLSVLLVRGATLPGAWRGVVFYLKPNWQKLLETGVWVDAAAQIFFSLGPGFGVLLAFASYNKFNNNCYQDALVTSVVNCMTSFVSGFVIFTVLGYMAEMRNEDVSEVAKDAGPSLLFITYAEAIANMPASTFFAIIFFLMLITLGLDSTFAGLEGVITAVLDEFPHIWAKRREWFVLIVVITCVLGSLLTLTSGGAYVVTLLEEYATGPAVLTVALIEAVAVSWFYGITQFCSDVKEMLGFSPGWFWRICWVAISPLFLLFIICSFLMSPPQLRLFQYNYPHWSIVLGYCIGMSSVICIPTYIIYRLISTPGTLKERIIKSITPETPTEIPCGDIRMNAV
Description: (§1) Test compounds and synaptosomes were prepared as described for uptake inhibition assays. Synaptosomes treated with [^3H]5-HT, [^3H]DA or [^3H]NE were loaded onto filter chambers containing GF/C filters and placed in a superfusion system. Oxygenated Krebs buffer was perfused through the chambers at a rate of 1.5 mL/minute at 35° C. using either an 8-channel or a 12-channel peristaltic pump. Trapped air bubbles were removed from the filters prior to collecting fractions to ensure an even flow over the synaptosomal bed. After a superfusion period of 45 minutes, 2 basal fractions were collected followed by 6 fractions following the addition of the test drug. […] Scintillation cocktail was added, and the filters counted to determine residual radioactivity. Drug-evoked release of neurotransmitter was calculated by subtracting the average of the two basal fractions (collected prior to the drug addition), from the four fractions collected in the presence of drug. The drug-evoked release was then expressed as a percentage of the basal release. Potassium-evoked release was calculated by subtracting the average of two fractions collected prior to the addition of high KCl buffer from that in the two fractions following addition of high KCl buffer. Potassium-stimulated release was calculated as a percentage of basal release. […]

[13] = target: T5, NET (Rattus norvegicus, UniProt Q63380); assay: [3H]NE release from rat brain synaptosomes; type: biochemical; design: from tissue; synaptosomes for uptake and release
T5 sequence (Q63380 1-617): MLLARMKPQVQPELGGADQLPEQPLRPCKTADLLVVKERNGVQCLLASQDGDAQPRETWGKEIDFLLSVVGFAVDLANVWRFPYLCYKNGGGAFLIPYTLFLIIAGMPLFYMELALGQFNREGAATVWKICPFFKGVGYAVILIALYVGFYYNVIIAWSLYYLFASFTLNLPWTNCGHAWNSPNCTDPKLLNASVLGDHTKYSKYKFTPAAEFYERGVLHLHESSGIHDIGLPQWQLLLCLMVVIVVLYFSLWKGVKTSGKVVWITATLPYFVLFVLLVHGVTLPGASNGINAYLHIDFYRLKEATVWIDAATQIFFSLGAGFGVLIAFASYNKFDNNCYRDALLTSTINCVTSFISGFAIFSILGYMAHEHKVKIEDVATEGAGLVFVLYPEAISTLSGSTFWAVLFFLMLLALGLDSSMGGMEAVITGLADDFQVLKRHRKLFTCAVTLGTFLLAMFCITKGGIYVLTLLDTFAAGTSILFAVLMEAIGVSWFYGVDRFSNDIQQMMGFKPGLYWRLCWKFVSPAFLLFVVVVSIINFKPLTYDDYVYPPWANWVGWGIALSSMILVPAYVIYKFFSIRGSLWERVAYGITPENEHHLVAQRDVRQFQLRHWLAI
Description: as §1

[14] = target: T6, DAT (Rattus norvegicus, UniProt P23977); assay: [3H]DA release from rat brain synaptosomes; type: biochemical; design: from tissue; synaptosomes for uptake and release
T6 sequence (P23977 whole entry): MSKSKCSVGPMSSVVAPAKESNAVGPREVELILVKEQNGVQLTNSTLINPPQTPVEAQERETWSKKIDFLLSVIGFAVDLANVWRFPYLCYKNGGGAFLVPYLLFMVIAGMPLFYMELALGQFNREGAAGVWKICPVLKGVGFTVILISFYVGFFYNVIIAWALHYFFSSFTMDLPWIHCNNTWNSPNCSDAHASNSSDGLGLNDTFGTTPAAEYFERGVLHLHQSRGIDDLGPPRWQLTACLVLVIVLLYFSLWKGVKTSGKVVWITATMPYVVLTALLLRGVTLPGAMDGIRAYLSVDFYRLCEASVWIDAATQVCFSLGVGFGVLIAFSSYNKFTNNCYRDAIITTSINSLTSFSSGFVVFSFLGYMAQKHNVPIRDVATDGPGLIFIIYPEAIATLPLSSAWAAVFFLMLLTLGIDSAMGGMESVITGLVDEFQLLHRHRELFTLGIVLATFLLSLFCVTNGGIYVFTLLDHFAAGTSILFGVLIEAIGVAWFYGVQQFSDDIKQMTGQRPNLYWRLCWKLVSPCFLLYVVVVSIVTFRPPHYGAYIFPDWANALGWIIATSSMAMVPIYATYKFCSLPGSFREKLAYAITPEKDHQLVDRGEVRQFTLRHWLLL
Description: as §1

[15] = target: T5, NET; assay: [3H]NE uptake inhibition in rat brain synaptosomes
[16] = target: T6, DAT; assay: [3H]DA uptake inhibition in rat brain synaptosomes
[17] = target: T4, SERT; assay: [3H]5-HT uptake inhibition in rat brain synaptosomes

T1 sequence (P28223 whole entry): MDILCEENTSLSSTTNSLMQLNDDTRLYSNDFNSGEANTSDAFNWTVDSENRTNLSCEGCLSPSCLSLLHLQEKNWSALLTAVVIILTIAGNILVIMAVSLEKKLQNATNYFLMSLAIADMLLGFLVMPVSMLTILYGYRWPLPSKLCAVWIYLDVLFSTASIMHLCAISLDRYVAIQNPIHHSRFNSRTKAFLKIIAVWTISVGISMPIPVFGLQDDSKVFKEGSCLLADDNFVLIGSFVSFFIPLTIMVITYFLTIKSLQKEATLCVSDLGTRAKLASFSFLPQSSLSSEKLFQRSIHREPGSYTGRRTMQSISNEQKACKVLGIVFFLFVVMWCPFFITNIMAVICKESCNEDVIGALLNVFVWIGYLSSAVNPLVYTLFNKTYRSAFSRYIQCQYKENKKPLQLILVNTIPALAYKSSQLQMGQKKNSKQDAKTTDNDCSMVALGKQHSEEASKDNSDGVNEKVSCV

CNC(C)Cc1ccc2c(c1)OCO2 (racemic) [MDMA, 3,4-Methylenedioxymethamphetamine]
Agonist % activity [1]: 27.5%
Agonist % activity [2]: 28.0%
Antagonist % inhibition [3]: 52.2%
Times greater affinity for the 5HT2B receptor compared with methylone [4]: 7.5 times
Additional genes significantly regulated by MDMA only ([5]; amygdala): 1313 genes
Genes downregulated by MDMA only ([5]; amygdala): 774 genes
Genes regulated by MDMA that are also regulated by methylone ([5]; amygdala): 7%
Genes upregulated by MDMA only ([5]; amygdala): 539 genes
Genes regulated by both treatments ([5]; frontal cortex): 154 genes
More genes regulated than methylone ([5]; frontal cortex): ~72%
Genes significantly regulated ([5]; frontal cortex, 10 mg/kg IP (Example 27)): 825 genes
MBP in basolateral and central nuclei of the amygdala vs. vehicle [6]: significant reduction in MBP
Reduction in immobility in the FST ([7]; 5 mg/kg, Flinders Sensitive Line rats): 45%
Reduction in immobility in the FST ([7]; 5 mg/kg, Sprague Dawley rats (Majumder 2011)): 45%
Reduction in immobility in the FST ([7]; 10 mg/kg, Flinders Sensitive Line rats): 93%
Reduction in immobility in the FST ([7]; 10 mg/kg, Sprague Dawley rats (Majumder 2011)): 78%
Reduced freezing vs. saline (extinction recall) [8]: 35%
Ki [9]: 500 nM
half-life [10]: 5 to 7 h
Blood concentrations in deaths attributable to MDMA alone [11]: 478 to 53900 ng/mL
EC50 [12]: 160 nM
EC50 [13]: 490 nM
EC50 [14]: 1420 nM
IC50 [15]: 120 nM
IC50 [16]: 2500 nM
IC50 [17]: 1800 nM
